We go through one molecule from US20190307754A1, “PDE9 INHIBITORS FOR TREATMENT OF PERIPHERAL DISEASES” (IMARA, INC., priority 2016, published 2019).

Series [1] in a line: Pharmacokinetics of single oral and IV dose in CD1 mice. It is filed as in vivo. The protocol:
Blood samples were taken at 2 minutes (IV only), then 8, 15, 30 minutes, and 1, 2, 4, 8, and 24 hours after dosing and analyzed for key PK parameters. In the rats, brain samples were taken at 24 hours and analyzed for Compound P3.1. To evaluate the penetration of Compound P3.1 across the blood-brain barrier (BBB), 10 additional rats received IV Compound P3.1 3 mg/kg and plasma and brain concentrations of Compound P3.1 were determined from 2 animals at 15 minutes, 30 minutes and 1, 2, and 4 hours after dosing.

The test system of series [2] is 7 key CYP enzyme isoforms. In words: CYP enzyme inhibition in human liver microsomes. The note with it: up through 100 μM.
Series [3] can be described thus: Plasma, brain and eye exposure in C57Bl/6J mice. The format is in vivo. The note with it: for concentration at 30 min: male, C57Bl/6J, mouse, plasma, oral, gavage, Day 5, 30 minutes after dosing. The protocol: The exposure of both compounds was also evaluated in the plasma, brain, and eye. […] During the treatment period all animals were assessed for contextual fear conditioning and a subset of 7 animals per group was evaluated for locomotor activity. On Day 5, plasma, brain, and eye tissue were collected 30 minutes after dosing from 3 animals per treated group to measure concentrations of test item.

Series [4] has as its system K562 erythroleukemic cells. In words: cGMP in cultured K562 cells. The conditions noted are these: 16 hours. It is filed as cell-based. The protocol: Hydroxyurea was included as a comparator as it is currently the only FDA approved treatment for this disease (Charache et al., N Engl J Med., 332(20):1317-22. (1995)). One of the proposed mechanisms of action of HU in SCD is that it may generate NO and modulation of intracellular levels of the NO second messenger, cGMP, may represent an effective and cell-specific approach for amplifying intracellular NO-dependent signaling.
K562 cells were cultured at 37° C. in IMDM® to which the required concentrations of test items or dimethyl sulfoxide (DMSO; negative Control) had been added. Plated cells were maintained at 37° C. for 16 hours at the end of which the amount of cGMP was detected by enzyme immunoassay.

[5] abbreviates: mouse, blood, CD1 mice, 3 mg/kg IV.
Where [6] appears, read: mouse, blood, CD1 mice, 10 mg/kg oral.

Marks after values point to notes of the source that are not given here.

As for `C[C@@H]1CN(Cc2ncccn2)C[C@H]1c1cn2c(C3CCOCC3)ncc2c(=O)[nH]1` (single isomer, unassigned) [Compound P3.1], the bioavailability in series [1] (CD1, mouse, plasma, po, 10 mg/kg, read-out: oral bioavailability Flast) was found to be 44.6%. The same molecule displayed a Cl_obs in series [1] (CD1 mice, 3 mg/kg IV) of 30.7 mL/min/kg. Further, in series [1] (CD1 mice, 10 mg/kg oral), the Flast was 63.4% and the Vss obs is 63.4** L/kg. Moreover, in series [1] (mice, 10 mg/kg oral), the “continuously exposed out to” value was 4 h. In series [1] (setting [5]), this molecule showed an AUC(0-t) of 1630 ng·h/mL, a C0 of 4430 ng/mL, an MRT of 26.4 min and a half-life of 37.8 min. In addition, the Vd in series [1] (mouse, blood, CD1 mice, 3 mg/kg IV, read-out: Vss obs) is 0.89 L/kg. Further, in series [1] (setting [6]), the AUC(0-t) was 3440 ng·h/mL, the C0 amounted to 2750 ng/mL, the Tmax was 30 min and the half-life is 48.6 min. Further, the “direct inhibition of 7 key CYP enzyme isoforms” value in series [2] is “no potential for direct inhibition”. Moreover, the “eye tissue level relative to AF27873” value in series [3] (10 and 30 mg/kg/day) is 3 fold lower. For the same molecule, in series [3] (10 mg/kg/day), the concentration at 30 min amounted to 3.84 µM. The same molecule had a concentration at 30 min in series [3] (30 mg/kg/day) of 9.91 µM. The “plasma to brain ratio” value in series [3] (repeated administration) is “approximately 14”. Also, the “cGMP concentration at 1 μM compared with 100 μM HU” value in series [4] (1 μM) is “approximately the same value elicited by 100 μM HU”. This molecule came in with a cGMP level in series [4] (10 μM) of 12.61 pg/mg. Also, in series [4], the “effect on cGMP levels” value was “dose-dependent and statistically significant increases in cGMP levels”.
